# In article PMC4327855 (Science signaling, 2014):
# pIC50: −log10 of the molar value.
# Molecular target: T1, TPC1 (Strongylocentrotus purpuratus, UniProt D1J6X7)
# T1 sequence (D1J6X7 1-881): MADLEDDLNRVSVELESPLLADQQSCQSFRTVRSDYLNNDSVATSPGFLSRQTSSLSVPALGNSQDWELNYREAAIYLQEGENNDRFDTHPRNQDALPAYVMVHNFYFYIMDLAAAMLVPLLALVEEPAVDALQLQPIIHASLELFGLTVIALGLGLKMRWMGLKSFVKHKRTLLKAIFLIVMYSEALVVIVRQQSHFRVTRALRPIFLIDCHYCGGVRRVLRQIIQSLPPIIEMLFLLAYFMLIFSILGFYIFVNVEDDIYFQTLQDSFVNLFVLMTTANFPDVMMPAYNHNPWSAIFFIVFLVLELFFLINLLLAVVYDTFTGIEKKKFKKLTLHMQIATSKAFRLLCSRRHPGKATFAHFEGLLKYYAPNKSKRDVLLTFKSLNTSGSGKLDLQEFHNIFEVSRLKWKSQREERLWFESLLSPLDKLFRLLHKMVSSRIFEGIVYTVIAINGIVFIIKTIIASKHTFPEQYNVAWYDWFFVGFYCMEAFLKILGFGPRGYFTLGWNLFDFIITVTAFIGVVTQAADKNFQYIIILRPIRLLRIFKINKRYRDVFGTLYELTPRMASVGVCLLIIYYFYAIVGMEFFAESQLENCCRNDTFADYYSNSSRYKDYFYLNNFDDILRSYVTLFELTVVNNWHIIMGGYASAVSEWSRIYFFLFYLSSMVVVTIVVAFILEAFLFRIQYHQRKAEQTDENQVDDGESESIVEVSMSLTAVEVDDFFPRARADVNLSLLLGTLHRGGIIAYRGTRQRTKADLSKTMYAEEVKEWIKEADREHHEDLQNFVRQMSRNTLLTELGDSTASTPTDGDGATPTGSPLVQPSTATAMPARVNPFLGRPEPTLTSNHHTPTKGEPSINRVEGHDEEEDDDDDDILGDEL
# Experiment: inhibition of NAADP-evoked Ca2+ signals
# Format: cell-based
smiles,measurement,value
COC(=O)C1=C(C)NC(C)=C(C(=O)OC)C1c1ccccc1[N+](=O)[O-] [nifedipine],pIC50,5.40
